{"source": "patent US10206911B2", "about": "“Androgen receptor variants and methods for making and using” (MEMORIAL SLOAN-KETTERING CANCER CENTER, priority 2012, dated 2019)", "key": {"AR F876L": {"target": "T1, AR F876L (Homo sapiens, UniProt P10275, DEL79-80/DUP473-473/F877L)", "T1 construct": "expressed in transfected cells", "T1 sequence (P10275 with tags, fused parts or gaps DEL79-80/DUP473-473/F877L)": "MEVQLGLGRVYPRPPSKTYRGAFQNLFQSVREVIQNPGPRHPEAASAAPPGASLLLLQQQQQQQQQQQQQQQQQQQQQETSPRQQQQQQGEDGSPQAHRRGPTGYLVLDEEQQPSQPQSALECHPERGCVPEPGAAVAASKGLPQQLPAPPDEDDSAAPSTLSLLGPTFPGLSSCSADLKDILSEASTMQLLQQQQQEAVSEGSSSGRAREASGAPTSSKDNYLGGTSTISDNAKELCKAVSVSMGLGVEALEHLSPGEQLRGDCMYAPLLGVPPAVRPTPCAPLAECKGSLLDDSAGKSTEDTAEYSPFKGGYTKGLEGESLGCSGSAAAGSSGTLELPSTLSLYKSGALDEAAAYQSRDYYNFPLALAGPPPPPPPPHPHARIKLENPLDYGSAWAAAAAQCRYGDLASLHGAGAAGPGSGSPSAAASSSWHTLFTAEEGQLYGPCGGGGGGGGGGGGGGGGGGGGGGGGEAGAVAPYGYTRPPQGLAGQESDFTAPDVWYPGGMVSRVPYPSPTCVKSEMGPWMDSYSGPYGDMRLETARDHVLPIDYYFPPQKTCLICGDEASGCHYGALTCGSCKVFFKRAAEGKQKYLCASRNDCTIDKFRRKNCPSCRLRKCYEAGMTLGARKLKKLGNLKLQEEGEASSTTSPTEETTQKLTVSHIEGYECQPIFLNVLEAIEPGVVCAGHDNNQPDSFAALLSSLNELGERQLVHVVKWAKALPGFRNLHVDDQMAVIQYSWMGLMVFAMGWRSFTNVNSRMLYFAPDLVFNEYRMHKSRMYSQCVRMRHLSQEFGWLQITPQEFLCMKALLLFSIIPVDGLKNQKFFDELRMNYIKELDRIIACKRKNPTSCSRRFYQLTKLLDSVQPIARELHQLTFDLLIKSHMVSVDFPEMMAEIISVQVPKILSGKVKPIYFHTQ", "assay": "EGFP reporter assay of AR activity, LNCaP-Pb.PSE.EGFP cells, flow cytometry", "type": "cell-based", "conditions": "10 μM, 4 days of treatment", "from_the_text": "(§1) This clone was used for all flow cytometry assays and for the FACS-based resistance screens."}, "AR WT": {"target": "T2, AR WT (Homo sapiens, UniProt P10275, DEL79-80/DUP473-473)", "T2 construct": "expressed in transfected cells; host or cells: LNCaP-Pb.PSE.EGFP (pantropic retroviral infection, blasticidin selection)", "T2 sequence (P10275 with tags, fused parts or gaps DEL79-80/DUP473-473)": "T1 sequence (P10275 with tags, fused parts or gaps DEL79-80/DUP473-473/F877L) with L876F", "assay": "EGFP reporter assay of AR activity, LNCaP-Pb.PSE.EGFP cells, flow cytometry", "type": "cell-based", "conditions": "10 μM, 4 days of treatment", "from_the_text": "as §1"}, "[1]": {"tested_on": "AR mutants isolated from drug resistant LNCaP/AR xenograft tumors", "assay": "Luciferase reporter assay of AR activity in androgen depleted media, CV1 cells", "type": "cell-based, human", "conditions": "10 μm antiandrogen"}, "[2]": {"tested_on": "AR mutants isolated from drug resistant LNCaP/AR xenograft tumors", "assay": "EGFP reporter assay of AR activity, LNCaP/Pb.PSE.EGFP cells", "type": "cell-based, human", "conditions": "androgen containing media, 10 μM antiandrogen", "method": "Additionally, EGFP reporter assays of AR activity in cells expressing the indicated AR mutants were performed and the data are presented in FIG. 21A and FIG. 21B."}, "[3]": {"tested_on": "AR mutants isolated from drug resistant CWR22Pc cells", "assay": "EGFP reporter assay and qRT-PCR, LNCaP/Pb.PSE.EGFP cells", "type": "cell-based, human", "conditions": "10 μM antiandrogen; variable degrees, gene-specific differences"}, "[4]": {"tested_on": "VCaP cells overexpressing AR WT", "assay": "VCaP growth assay (CellTiter-GLO)", "type": "cell-based, human", "conditions": "full-serum containing media, 10 μM"}, "[5]": {"tested_on": "VCaP cells overexpressing AR F876L", "assay": "VCaP growth assay (CellTiter-GLO)", "type": "cell-based, human", "conditions": "full-serum containing media, 10 μM"}, "[6]": {"tested_on": "DU145 (an AR null human prostate cancer cell line)", "assay": "DU145 cell viability (CellTiterGLO)", "type": "cell-based", "conditions": "10 μM, full serum containing media", "method": "DU145 cells were cultured in full serum containing media with 10 uM of the indicated antiandrogens. CellTiterGLO assay was performed on days 0, 3, and 6 to determine cell viability. RLU=relative light units."}, "[7]": {"tested_on": "CWR22PC cells expressing AR WT", "assay": "CWR22PC cell viability (CellTiterGLO)", "type": "cell-based, human", "conditions": "full serum media; days 1, 4, and 7", "method": "[…]. […] CellTiterGLO assay was performed on days 1, 4, and 7 to measure cell viability. […] CellTiterGLO assay was performed on days 1, 4, and 7 to measure cell viability.\n[…]. […] CellTiterGLO assay was performed on days 1, 4, and 7 to determine cell viability. RLU=relative light units."}, "[8]": {"tested_on": "LNCaP/AR cells ectopically expressing AR WT", "assay": "LNCaP/AR xenograft, time to tumor progression", "type": "in vivo, castrated male SCID mice", "conditions": "30 mg/kg enzalutamide, daily gavage, castrate SCID mice", "experimental": "Daily gavage treatment (using a formulation of 1% carboxymethyl cellulose, 0.1% Tween-80, 5% DMSO) was initiated on the day of injection. Once tumors were palpable, tumor size was measured weekly in three dimensions (1×w×d) with calipers."}, "AR T877A": {"target": "T3, AR T877A (Homo sapiens, UniProt P10275, DEL79-80/DUP473-473/T878A)", "T3 construct": "expressed in transfected cells; host or cells: CV1", "T3 sequence (P10275 with tags, fused parts or gaps DEL79-80/DUP473-473/T878A)": "T1 sequence (P10275 with tags, fused parts or gaps DEL79-80/DUP473-473/F877L) with L876F, T877A", "assay": "AR luciferase reporter assay (ARE(4X)-luciferase) in CV1 cells", "type": "cell-based", "conditions": "10 μM antiandrogen", "method": "Transfection media was removed 4-6 hours later and replaced with phenol red free DME-HG containing 10% charcoal stripped serum. The following day each plate was split into 24- or 48-well plates, in 10% CSS media, containing the indicated drugs in triplicate. Twenty-four to forty-eight hours later, luciferase activity was assayed using Dual-Luciferase Reporter Assay System (Promega) on a 96-well luminometer (Turner Biosystems)."}}, "note": "Numbering of substitutions follows the chain as printed. Entries after “also recorded” stand apart in the source; their conditions may differ.", "data": [{"smiles": "CNC(=O)c1ccc(N2C(=S)N(c3cnc(C#N)c(C(F)(F)F)c3)C(=O)C23CCCC(C)(C)C3)cc1F", "note": "(racemic) [(±)-DR106, 4-(3-(6-cyano-5-(trifluoromethyl)pyridin-3-yl)-7,7-dimethyl-4-oxo-2-thioxo-1,3-diazaspiro[4.5]decan-1-yl)-2-fluoro-N-methylbenzamide]", "values": [{"measurement": "Effect on transcriptional activity of AR F876L in EGFP reporter assay (agonism or antagonism)", "setting": "AR F876L", "value": "effectively antagonized; also recorded: AR F876L inhibition"}, {"measurement": "Effect on transcriptional activity of AR WT in EGFP reporter assay (agonism or antagonism)", "setting": "AR WT", "value": "effectively antagonized"}]}, {"smiles": "CNC(=O)c1ccc(N2C(=S)N(c3cnc(C#N)c(C(F)(F)F)c3)C(=O)C23CCC3)cc1F", "note": "[ARN-509]", "values": [{"measurement": "Agonism on AR mutants, luciferase reporter", "setting": "[1]", "value": "none of the mutants conferred agonism"}, {"measurement": "Sensitivity of AR mutants, EGFP reporter", "setting": "[2]", "value": "still remained sensitive"}, {"measurement": "Sensitivity of AR mutants, EGFP reporter assay & qRT-PCR", "setting": "[3]", "value": "still remained sensitive"}]}, {"smiles": "CNC(=O)c1ccc(N2C(=S)N(c3ccc(C#N)c(C(F)(F)F)c3)C(=O)C23CCCCC3)cc1F", "note": "[DR101, 4-(3-(4-cyano-3-(trifluoromethyl)phenyl)-4-oxo-2-thioxo-1,3-diazaspiro[4.5]decan-1-yl)-2-fluoro-N-methylbenzamide]", "values": [{"measurement": "Effect on transcriptional activity of AR F876L in EGFP reporter assay (agonism or antagonism)", "setting": "AR F876L", "value": "agonist"}, {"measurement": "Growth of VCaP cells, AR WT", "setting": "[4]", "value": "only inhibit the growth of VCaP/AR WT"}, {"measurement": "Growth of VCaP cells overexpressing AR F876L", "setting": "[5]", "value": "did not inhibit cell growth"}]}, {"smiles": "CNC(=O)c1ccc(N2C(=S)N(c3ccc(C#N)c(C(F)(F)F)c3)C(=O)C23CCC(C)(C)CC3)cc1F", "note": "[DR104, 4-(3-(4-cyano-3-(trifluoromethyl)phenyl)-8,8-dimethyl-4-oxo-2-thioxo-1,3-diazaspiro[4.5]decan-1-yl)-2-fluoro-N-methylbenzamide]", "values": [{"measurement": "Effect on transcriptional activity of AR F876L in EGFP reporter assay (agonism or antagonism)", "setting": "AR F876L", "value": "modest agonist"}, {"measurement": "Effect on transcriptional activity of AR WT in EGFP reporter assay (agonism or antagonism)", "setting": "AR WT", "value": "antagonist"}, {"measurement": "Proliferation of DU145 cells", "setting": "[6]", "value": "no significant growth inhibition"}]}, {"smiles": "CNC(=O)c1ccc(N2C(=S)N(c3ccc(C#N)c(C(F)(F)F)c3)C(=O)C23CC(C)(C)CC(C)(C)C3)cc1F", "note": "[DR105, 4-(3-(4-cyano-3-(trifluoromethyl)phenyl)-7,7,9,9-tetramethyl-4-oxo-2-thioxo-1,3-diazaspiro[4.5]decan-1-yl)-2-fluoro-N-methylbenzamide]", "values": [{"measurement": "Effect on transcriptional activity of AR F876L in EGFP reporter assay (agonism or antagonism)", "setting": "AR F876L", "value": "effectively antagonized; also recorded: inhibited"}, {"measurement": "Effect on transcriptional activity of AR WT in EGFP reporter assay (agonism or antagonism)", "setting": "AR WT", "value": "effectively antagonized; also recorded: inhibited"}]}, {"smiles": "CNC(=O)c1ccc(N2CC(=O)N(c3ccc(C#N)c(C(F)(F)F)c3)C2=S)cc1F", "note": "[DR107, 4-(3-(4-cyano-3-(trifluoromethyl)phenyl)-4-oxo-2-thioxoimidazolidin-1-yl)-2-fluoro-N-methylbenzamide]", "values": [{"measurement": "Effect on transcriptional activity of AR F876L in EGFP reporter assay (agonism or antagonism)", "setting": "AR F876L", "value": "agonist"}, {"measurement": "Effect on transcriptional activity of AR WT in EGFP reporter assay (agonism or antagonism)", "setting": "AR WT", "value": "agonist"}]}, {"smiles": "CNC(=O)c1ccc(N2C(=S)N(c3ccc(C#N)c(C(F)(F)F)c3)C(=O)C2(C)C)cc1F", "note": "[enzalutamide]", "values": [{"measurement": "Growth of VCaP cells, AR WT", "setting": "[4]", "value": "only inhibit the growth of VCaP/AR WT; also recorded: potently inhibits the growth"}, {"measurement": "Growth/viability of CWR22PC cells, AR WT", "setting": "[7]", "value": "very sensitive"}, {"measurement": "Growth of wild-type AR tumors", "setting": "[8]", "value": "almost completely inhibited"}, {"measurement": "Agonism on AR mutants, luciferase reporter", "setting": "[1]", "value": "none of the mutants conferred agonism"}, {"measurement": "Sensitivity of AR mutants, EGFP reporter", "setting": "[2]", "value": "still remained sensitive"}, {"measurement": "Sensitivity of AR mutants, EGFP reporter assay & qRT-PCR", "setting": "[3]", "value": "still remained sensitive"}]}, {"smiles": "CC(C)(O)C(=O)Nc1ccc([N+](=O)[O-])c(C(F)(F)F)c1", "note": "[hydroxyflutamide]", "values": [{"measurement": "Agonism in luciferase reporter", "setting": "AR T877A", "value": "confer agonism"}]}]}
